In paper PMC7407621, “Enhancing a de novo enzyme activity by computationally-focused ultra-low-throughput screening” (Chemical Science, 2020):

System: GNCA4-WT (GNCA4-W229D/F290W)
Details: pH 7, 25 °C, 100 mM NaCl, 5% acetonitrile, His-tag

O=[N+]([O-])c1ccc2oncc2c1 [5-nitrobenzisoxazole]
Km: 3.7 ± 0.8 mM
